According to patent publication EP1131297B1, “CERTAIN SUBSTITUTED CAPROLACTAMS, PHARMACEUTICAL COMPOSITIONS CONTAINING THEM AND THEIR USE IN TREATING TUMORS” (Novartis AG, priority 1998, dated 2000):
In brackets after ≈: the same amount, converted by molar mass. Read-outs that look alike come from different tables or passages of the source.

Columns and labels:
[1] = tested on: MDA-MB-435 breast carcinoma; assay: Anchorage Dependent Growth Monolayer Assay (ADGMA), MTS readout; format: cell-based; details: average ± S.D., 3-day exposure, A490
From the text: As indicated above, all of the compounds of formula I, and their corresponding pharmaceutically acceptable acid addition salts, are anti-tumor agents and are, therefore, useful in inhibiting the growth of various lymphomas, sarcomas, carcinomas, myelomas, and leukemia cell lines. […] This assay was adapted from the 60 cell line assay used by the National Cancer Institute (NCI) with the following modifications: 1) a single cell line representative for the important tumor type, viz., MDA-MB-435 breast carcinoma was utilized; 2) a tetrazolium derivative, viz., MTS, was utilized to determine cell density.
The ADGMA compares the number of viable cells following a 3-day exposure to a test compound relative to a number of cells present at the time the test compound was added. […] The absorbance at 490 nm (A490) of the formazan derivative is proportional to the number of viable cells. The IC50 for a test compound is the concentration of compound required to reduce the final cell number to 50% of the final control cell number. If cell proliferation is inhibited, the assay further defines compounds as cytostatic (cell number after 3-day compound incubation >cell number at time of compound addition) or cytotoxic (cell number after 3-day compound incubation <cell number at time of compound addition).
The MDA-MB-435 breast carcinoma line was obtained from the American Type Culture Collection (ATCC) and used between passages 4-20 following thawing. MDA-MB-435 breast carcinoma was maintained and plated in DME/F12 medium containing 10% fetal bovine serum, 15 mM HEPES (pH=7.4), penicillin 100 units/mL, and streptomycin 100 µg/mL.
Cell lines are trypsinized and counted using a Coulter counter to determine plating densities. Cells are then plated in their respective maintenance media (100 µL/well) in 96 well plates at the following densities: MDA-MB-435, 3,000 cells/well. The number of cells plates as determined in preliminary experiments, results in cell densities of 75-90% of confluency by 4 days after plating. Initial cell densities, assayed one day after plating, are roughly 0.15-0.20 absorbance units greater than the media blank. Ninety-six well plates are seeded on day 0 and the test compounds are added on day 1. A control plate is created for each cell line that receives media only in row A and cells in row B. One day following plating, test compounds are added (in a final volume of 100 µL) to the test plates. Control plates receive 10 µL MTS mixture (prepared fresh on day of addition to cell plates at a ratio of 10 µL of a 0.92 mg/mL solution of PMS to a 190 µL of a 2 mg/mL solution of MTS) and 100 µL media. A490 of control plates is read 4h after MTS addition to determine initial cell density values for each cell line. Three days after addition of test compound, 10 µL/well of MTS mixture is added to the test plates and A490 is read 4h later. A490 values for wells containing cells are corrected for media absorbance, then normalized to initial density readings to determine percent net growth. IC50 values are determined from graphs of percent net growth as a function of compound concentration. Percent net growth is calculated as (Cell + Drug A490 - Initial A490/Cell + Drug Vehicle A490 - Initial A490).

[2] = tested on: MDA-MB-435 tumor xenografts; assay: Human tumor xenograft growth inhibition in athymic nude mouse model; format: in vivo, athymic (nu/nu) mice
Experimental: The histologic tumor type employed was MDA-MB-435 breast carcinoma.
Positive controls are carried out with doxorubicin administered 3 times per week i.v.
Anti-tumor activity was expressed as %T/C (Δ MTV of treated group ö Δ MTV of control group X100).

[3] = Water solubility
[4] = 10 µmol/kg i.v., 3X/week for 3 weeks
[5] = 33 µmol/kg i.v., 3X/week for 3 weeks
[6] = Mus musculus, MDA-MB-435, iv, 504 h, 10 µmol/kg i.v., 3X/week for 3 weeks, * = statistically significant (p=<0.05), read-out: %T/C
[7] = Mus musculus, MDA-MB-435, iv, 504 h, 33 µmol/kg i.v., 3X/week for 3 weeks, * = statistically significant (p=<0.05), read-out: %T/C
[8] = 100 µmol/kg i.v., 3X/week for 3 weeks
[9] = Mus musculus, MDA-MB-435, iv, 504 h, read-out: %T/C
[10] = 2 mg/kg i.v., 3X/week for 3 weeks (positive control)

Row | Molecule | IC50 ([1]; Homo sapiens, MDA-MB-435, 72 h) [nM] | Dead/Total [2, 4] | Δ MTV [2, 4] [mm^3] | Dead/Total [2, 5] | Δ MTV [2, 5] [mm^3] | response vs control in vivo at 10 µmol/kg [2, 6] [%] | response vs control in vivo at 33 µmol/kg [2, 7] [%] | IC50 [1] [nM] | solubility [3] [µg/mL] | Dead/Total [2, 8] | Δ MTV [2, 8] [mm^3] | response vs control in vivo at 10 µmol/kg [2, 9] [%] | response vs control in vivo at 33 µmol/kg [2, 9] [%] | response vs control in vivo at 100 µmol/kg [2, 9] [%] | Dead/Total [2, 10] | Δ MTV [2, 10] [mm^3] | response vs control in vivo at 2 mg/kg ([2]; Mus musculus, MDA-MB-435, iv, 504 h, 2 mg/kg i.v., 3X/week for 3 weeks (positive control), * = statistically significant (p=<0.05), read-out: %T/C) [%]
1 | CO[C@@H](C(=O)N[C@H]1CC[C@@H](OC(=O)CCc2cccnc2)CNC1=O)[C@H](O)[C@@H](O)[C@H](O)/C=C/C(C)(C)C [Ex. 5, (2R, 3R, 4S, 5R, 6E)-3,4,5-trihydroxy-2-methoxy-8,8-dimethyl-N-[(3S, 6R)-hexahydro-2-oxo-6-(1-oxo-3-[3-pyridyl]propoxy)-2H-azepin-3-yl]non-6-enamide] | 465 ± 204 | 0/8 | 130 | 0/8 | 62 | 92 | 44 |  |  |  |  |  |  |  |  |  | 
2 | (2R, 3R, 4S, 5R, 6E)-3,4,5-trihydroxy-2-methoxy-8,8-dimethyl-N-[(3S, 6R)-hexahydro-2-oxo-6-(1-oxo-3-[3-indolyl]ethoxy)-2H-azepin-3-yl]non-6-enamide [Ex. 14] |  |  |  |  |  |  |  | 1240 ± 200 |  |  |  |  |  |  |  |  | 
3 | CO[C@@H](C(=O)N[C@H]1CC[C@@H](OC(=O)C2CCCCC2)CNC1=O)[C@H](O)[C@@H](O)[C@H](O)/C=C/C(C)(C)C [Ex. 1, (2R, 3R, 4S, 5R, 6E)-3,4,5-trihydroxy-2-methoxy-8,8-dimethyl-N-[(3S, 6R)-hexahydro-2-oxo-6-(cyclohexylcarbonyl)oxy-2H-azepin-3-yl]non-6-enamide] | 68 ± 40 | 0/8 | 107 | 0/8 | 43 |  |  |  | 3700 (≈ 7.42 mM) | 0/8 | -11 | 61 | 24 | -6 |  |  | 
4 | CCCCCCCCCCOc1ccc(C(=O)O[C@@H]2CC[C@H](NC(=O)[C@H](OC)[C@H](O)[C@@H](O)[C@H](O)/C=C/C(C)(C)C)C(=O)NC2)cc1 [Ex. 10, (2R, 3R, 4S, 5R, 6E)-3,4,5-trihydroxy-2-methoxy-8,8-dimethyl-N-[(3S, 6R)-hexahydro-2-oxo-6-([4-n-decyloxyphenyl]carbonyl)oxy-2H-azepin-3-yl]non-6-enamide] | 8 ± 4 | 0/8 | 115 | 0/8 | 4 | 64 | 2 |  |  |  |  |  |  |  |  |  | 
5 | CO[C@@H](C(=O)N[C@H]1CC[C@@H](OC(=O)Cc2ccsc2)CNC1=O)[C@H](O)[C@@H](O)[C@H](O)/C=C/C(C)(C)C [Ex. 13, (2R, 3R, 4S, 5R, 6E)-3,4,5-trihydroxy-2-methoxy-8,8-dimethyl-N-[(3S, 6R)-hexahydro-2-oxo-6-(1-oxo-3-[3-thiophenyl]ethoxy)-2H-azepin-3-yl]non-6-enamide] |  |  |  |  |  |  |  | 300 |  |  |  |  |  |  |  |  | 
6 | CCCCCCCCCCc1ccc(C(=O)O[C@@H]2CC[C@H](NC(=O)[C@H](OC)[C@H](O)[C@@H](O)[C@H](O)/C=C/C(C)(C)C)C(=O)NC2)cc1 [Ex. 12, (2R, 3R, 4S, 5R, 6E)-3,4,5-trihydroxy-2-methoxy-8,8-dimethyl-N-[(3S, 6R)-hexahydro-2-oxo-6-([4-n-decylphenyl]carbonyl)oxy-2H-azepin-3-yl]non-6-enamide] | 34 ± 46 | 0/8 | 78 | 0/8 | 11 |  |  |  |  |  |  | 52 | 7 |  |  |  | 
7 | COc1ccc(CC(=O)O[C@@H]2CC[C@H](NC(=O)[C@H](OC)[C@H](O)[C@@H](O)[C@H](O)/C=C/C(C)(C)C)C(=O)NC2)cc1 [Ex. 9, (2R, 3R, 4S, 5R, 6E)-3,4,5-trihydroxy-2-methoxy-8,8-dimethyl-N-[(3S, 6R)-hexahydro-2-oxo-6-(1-oxo-2-[4-methoxyphenyl]ethoxy)-2H-azepin-3-yl]non-6-enamide] | 335 ± 141 | 0/8 | 107 | 0/8 | 68 | 76 | 48 |  |  |  |  |  |  |  |  |  | 
8 | COc1cccc2c1C(=O)c1c(O)c3c(c(O)c1C2=O)C[C@@](O)(C(=O)CO)C[C@@H]3O[C@H]1C[C@H](N)[C@H](O)[C@H](C)O1 [doxorubicin, reference compound] | 137 ± 105 |  |  |  |  |  |  |  |  |  |  |  |  |  | 0/8 | 74 | 42
9 | CO[C@@H](C(=O)N[C@H]1CC[C@@H](OC(=O)CC2CCCCC2)CNC1=O)[C@H](O)[C@@H](O)[C@H](O)/C=C/C(C)(C)C [Ex. 6, (2R, 3R, 4S, 5R, 6E)-3,4,5-trihydroxy-2-methoxy-8,8-dimethyl-N-[(3S, 6R)-hexahydro-2-oxo-6-(cyclohexylmethylcarbonyl)oxy-2H-azepin-3-yl]non-6-enamide] | 65 ± 1 | 0/8 | 66 | 0/8 | 48 | 47 | 34 |  |  |  |  |  |  |  |  |  | 
10 | CO[C@@H](C(=O)N[C@H]1CC[C@@H](OC(=O)Cc2ccc(Cl)c(Cl)c2)CNC1=O)[C@H](O)[C@@H](O)[C@H](O)/C=C/C(C)(C)C [Ex. 8, (2R, 3R, 4S, 5R, 6E)-3,4,5-trihydroxy-2-methoxy-8,8-dimethyl-N-[(3S, 6R)-hexahydro-2-oxo-6-(1-oxo-2-[3,4-dichlorophenyl]ethoxy)-2H-azepin-3-yl]non-6-enamide] | 175 ± 7 | 0/8 | 87 | 0/8 | 94 | 62 | 67 |  |  |  |  |  |  |  |  |  | 
11 | CO[C@@H](C(=O)N[C@H]1CC[C@@H](OC(=O)C2CCCCCC2)CNC1=O)[C@H](O)[C@@H](O)[C@H](O)/C=C/C(C)(C)C [Ex. 3] | 32 ± 14 | 0/8 | 69 | 0/8 | 49 | 39 | 28 |  |  |  |  |  |  |  |  |  | 
12 | CO[C@@H](C(=O)N[C@H]1CC[C@@H](OC(=O)/C=C/c2ccccc2)CNC1=O)[C@H](O)[C@@H](O)[C@H](O)/C=C/C(C)(C)C [Ex. 11] | 19 ± 5 | 0/8 | 135 | 0/8 | 76 |  |  |  |  |  |  | 76 | 43 |  |  |  | 
13 | CO[C@@H](C(=O)N[C@H]1CC[C@@H](OC(=O)Cc2ccccc2)CNC1=O)[C@H](O)[C@@H](O)[C@H](O)/C=C/C(C)(C)C [Ex. 7, (2R, 3R, 4S, 5R, 6E)-3,4,5-trihydroxy-2-methoxy-8,8-dimethyl-N-[(3S, 6R)-hexahydro-2-oxo-6-(1-oxo-2-phenylethoxy)-2H-azepin-3-yl]non-6-enamide] | 262 ± 70 | 0/8 | 101 | 0/8 | 61 | 72 | 43 |  |  |  |  |  |  |  |  |  | 
